Data taken from patent US10844077B2, “Thiazolyl-containing compounds for treating proliferative diseases” (Dana-Farber Cancer Institute, Inc., priority 2014, dated 2020).
“And” between values parts separate entries of the source, which are not always exact repeats. Equal values may be shown once.

Key:
Type in all cases: cell-based
[1] = molecular target: kinases in BCWM.1 cells (Homo sapiens, UniProt O00506); conditions: YSK1; Lys1; 1 μM, 90 min; GF
Experimental: (§1) The cells were harvested and lysed. […] Bound kinases were identified and quantitated by ACTIVX as described in Patricelli et al., Biochemistry, 2007, 46(2): 350-358. The compounds were tested in duplicates against duplicate or quadruplicate control samples.

[2] = molecular target: kinases in BCWM.1 cells (Homo sapiens, UniProt O14976); conditions: GAK; Lys2; 1 μM; GF
Experimental: as §1

[3] = molecular target: kinases in BCWM.1 cells (Homo sapiens, UniProt Q8NB16); conditions: MLKL; Lys1; 1 μM; GF
Experimental: as §1

[4] = molecular target: kinases in BCWM.1 cells (Homo sapiens, UniProt O94806); conditions: PKD3; Lys1; 1 μM, 90 min; GF
Experimental: as §1

[5] = molecular target: kinases in BCWM.1 cells (Homo sapiens, UniProt P19784); conditions: CK2a2; Lys2; 1 μM; GF
Experimental: as §1

[6] = molecular target: kinases in BCWM.1 cells (Homo sapiens, UniProt P41743); conditions: PKCi; Lys1; 1 μM, 90 min; GF
Sequence of kinases in BCWM.1 cells (Homo sapiens, UniProt P41743) (P41743 2-596 limits assumed): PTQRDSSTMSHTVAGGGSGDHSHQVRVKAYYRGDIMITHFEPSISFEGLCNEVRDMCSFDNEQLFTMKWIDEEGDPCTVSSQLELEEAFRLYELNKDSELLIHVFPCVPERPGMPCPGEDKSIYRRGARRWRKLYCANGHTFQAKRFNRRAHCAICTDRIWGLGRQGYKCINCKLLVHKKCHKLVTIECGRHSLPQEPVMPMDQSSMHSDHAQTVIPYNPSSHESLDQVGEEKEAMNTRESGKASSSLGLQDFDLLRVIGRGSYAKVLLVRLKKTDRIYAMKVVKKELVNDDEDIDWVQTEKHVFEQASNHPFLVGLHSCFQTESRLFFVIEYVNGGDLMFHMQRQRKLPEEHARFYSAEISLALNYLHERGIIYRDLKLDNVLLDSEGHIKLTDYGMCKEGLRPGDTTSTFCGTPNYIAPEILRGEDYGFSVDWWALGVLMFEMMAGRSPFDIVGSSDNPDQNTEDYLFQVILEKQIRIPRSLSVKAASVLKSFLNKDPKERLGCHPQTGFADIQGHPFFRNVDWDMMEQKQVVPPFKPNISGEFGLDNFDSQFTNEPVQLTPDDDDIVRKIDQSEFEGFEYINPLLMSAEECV
Experimental: as §1

[7] = molecular target: kinases in BCWM.1 cells (Homo sapiens, UniProt Q16513); conditions: PKN2; Lys2; 1 μM, 90 min; GF
Experimental: as §1

[8] = molecular target: kinases in BCWM.1 cells (Homo sapiens, UniProt O14920); conditions: IKKb; Lys2; 1 μM; GF
Experimental: as §1

[9] = molecular target: kinases in BCWM.1 cells (Homo sapiens, UniProt Q15831); conditions: LKB1; Lys2; 1 μM; GF
Experimental: as §1

[10] = molecular target: kinases in BCWM.1 cells (Homo sapiens, UniProt Q8TCG2); conditions: PI4K2B; ATP; 1 μM, 90 min; GF
Experimental: as §1

[11] = molecular target: kinases in BCWM.1 cells (Homo sapiens, UniProt Q14680); conditions: MELK; Lys2; 1 μM; GF
Experimental: as §1

[12] = molecular target: kinases in BCWM.1 cells (Homo sapiens, UniProt Q9NWZ3); conditions: IRAK4; Lys2; 1 μM; GF
Experimental: as §1

[13] = molecular target: kinases in BCWM.1 cells (Homo sapiens, UniProt P24941); conditions: CDK2; Lys2; 1 μM; GF
Experimental: as §1

[14] = molecular target: kinases in BCWM.1 cells (Homo sapiens, UniProt Q86XP1); conditions: DGKH; ATP; 1 μM; GF
Experimental: as §1

[15] = molecular target: kinases in BCWM.1 cells (Homo sapiens, UniProt P50613); conditions: CDK7; Lys2; 1 μM; GF
Sequence of kinases in BCWM.1 cells (Homo sapiens, UniProt P50613) (P50613 2-346 limits assumed): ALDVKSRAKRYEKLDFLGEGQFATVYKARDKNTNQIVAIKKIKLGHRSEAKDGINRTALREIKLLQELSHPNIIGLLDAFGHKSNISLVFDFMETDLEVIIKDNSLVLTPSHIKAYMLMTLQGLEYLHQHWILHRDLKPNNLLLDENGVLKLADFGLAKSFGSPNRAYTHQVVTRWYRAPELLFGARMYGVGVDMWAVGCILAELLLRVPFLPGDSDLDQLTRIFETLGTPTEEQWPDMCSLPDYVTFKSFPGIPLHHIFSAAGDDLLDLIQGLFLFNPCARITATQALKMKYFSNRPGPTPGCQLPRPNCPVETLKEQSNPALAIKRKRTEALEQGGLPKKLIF
Experimental: as §1

[16] = molecular target: kinases in BCWM.1 cells (Homo sapiens, UniProt Q00536)
Experimental: as §1

[17] = molecular target: kinases in BCWM.1 cells (Homo sapiens, UniProt P51617); conditions: IRAK1; Lys2; 1 μM; GF
Experimental: as §1

[18] = molecular target: kinases in BCWM.1 cells (Homo sapiens, UniProt P27361); conditions: Erk1; Lys2; 1 μM; GF
Sequence of kinases in BCWM.1 cells (Homo sapiens, UniProt P27361) (P27361 2-379 limits assumed): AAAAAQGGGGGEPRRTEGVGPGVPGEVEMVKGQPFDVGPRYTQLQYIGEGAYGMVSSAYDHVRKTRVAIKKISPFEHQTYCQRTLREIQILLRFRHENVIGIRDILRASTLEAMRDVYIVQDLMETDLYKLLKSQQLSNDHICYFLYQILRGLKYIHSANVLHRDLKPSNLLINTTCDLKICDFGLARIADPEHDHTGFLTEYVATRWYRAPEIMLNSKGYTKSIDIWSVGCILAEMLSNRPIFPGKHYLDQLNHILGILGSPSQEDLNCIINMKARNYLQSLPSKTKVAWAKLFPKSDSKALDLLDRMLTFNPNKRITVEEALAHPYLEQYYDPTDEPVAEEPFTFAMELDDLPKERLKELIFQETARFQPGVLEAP
Experimental: as §1

[19] = molecular target: kinases in BCWM.1 cells (Homo sapiens, UniProt Q14164); conditions: IKKe; Lys1; 1 μM; GF
Experimental: as §1

[20] = molecular target: kinases in BCWM.1 cells (Homo sapiens, UniProt P51451); conditions: BLK; Activation Loop; 1 μM; GF
Sequence of kinases in BCWM.1 cells (Homo sapiens, UniProt P51451) (P51451 2-505 limits assumed): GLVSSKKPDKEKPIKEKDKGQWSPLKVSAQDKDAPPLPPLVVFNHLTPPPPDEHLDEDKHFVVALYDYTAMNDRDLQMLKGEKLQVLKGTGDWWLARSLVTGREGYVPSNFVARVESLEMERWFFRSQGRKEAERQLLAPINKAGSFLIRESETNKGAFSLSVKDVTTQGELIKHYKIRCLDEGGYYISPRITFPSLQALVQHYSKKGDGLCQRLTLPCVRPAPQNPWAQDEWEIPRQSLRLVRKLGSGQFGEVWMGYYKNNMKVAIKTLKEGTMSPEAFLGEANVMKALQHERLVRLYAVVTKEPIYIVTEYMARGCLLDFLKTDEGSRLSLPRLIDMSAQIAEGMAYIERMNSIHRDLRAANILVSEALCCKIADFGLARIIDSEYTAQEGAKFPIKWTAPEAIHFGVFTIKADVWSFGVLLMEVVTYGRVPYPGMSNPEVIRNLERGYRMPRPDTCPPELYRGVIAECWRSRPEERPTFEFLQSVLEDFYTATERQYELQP
Experimental: as §1

[21] = molecular target: kinases in BCWM.1 cells (Homo sapiens, UniProt O15111); conditions: IKKa; Lys2; 1 μM; GF
Experimental: as §1

[22] = molecular target: kinases in BCWM.1 cells (Homo sapiens, UniProt P29323); conditions: EphB2; Activation Loop; 1 μM; GF
Sequence of kinases in BCWM.1 cells (Homo sapiens, UniProt P29323) (P29323 19-1055 limits assumed): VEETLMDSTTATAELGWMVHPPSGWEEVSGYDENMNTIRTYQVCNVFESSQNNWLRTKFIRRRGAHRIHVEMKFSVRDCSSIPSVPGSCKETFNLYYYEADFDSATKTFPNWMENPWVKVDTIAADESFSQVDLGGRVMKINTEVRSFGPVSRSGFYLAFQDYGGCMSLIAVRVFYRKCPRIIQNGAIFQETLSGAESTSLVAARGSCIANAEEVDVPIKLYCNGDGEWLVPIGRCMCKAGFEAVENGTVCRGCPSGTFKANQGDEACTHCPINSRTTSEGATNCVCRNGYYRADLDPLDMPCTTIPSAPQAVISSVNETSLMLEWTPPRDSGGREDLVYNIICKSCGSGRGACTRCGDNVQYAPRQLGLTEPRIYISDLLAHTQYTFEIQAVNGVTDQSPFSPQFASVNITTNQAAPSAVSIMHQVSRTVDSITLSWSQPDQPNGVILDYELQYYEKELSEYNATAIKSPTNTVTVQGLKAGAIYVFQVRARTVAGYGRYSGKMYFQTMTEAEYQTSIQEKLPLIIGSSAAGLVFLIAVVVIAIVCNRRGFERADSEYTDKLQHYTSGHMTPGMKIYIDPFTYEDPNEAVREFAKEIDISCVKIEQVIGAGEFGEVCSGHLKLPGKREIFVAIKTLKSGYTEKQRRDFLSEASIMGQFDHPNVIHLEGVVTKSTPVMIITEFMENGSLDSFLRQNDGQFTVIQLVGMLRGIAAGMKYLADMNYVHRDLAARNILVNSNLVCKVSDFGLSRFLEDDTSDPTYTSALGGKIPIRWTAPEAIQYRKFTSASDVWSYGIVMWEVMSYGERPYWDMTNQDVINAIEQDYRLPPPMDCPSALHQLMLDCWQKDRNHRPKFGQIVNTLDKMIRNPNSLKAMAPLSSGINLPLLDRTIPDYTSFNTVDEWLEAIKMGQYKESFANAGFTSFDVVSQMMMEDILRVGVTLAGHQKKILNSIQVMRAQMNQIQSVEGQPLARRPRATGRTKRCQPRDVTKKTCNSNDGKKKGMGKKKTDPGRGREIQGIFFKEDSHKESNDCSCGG
Experimental: as §1

[23] = molecular target: kinases in BCWM.1 cells (Homo sapiens, UniProt Q02156); conditions: PKCe; Lys2; 1 μM, 90 min; GF
Experimental: as §1

[24] = molecular target: kinases in BCWM.1 cells (Homo sapiens, UniProt P54762); conditions: EphB1; Activation Loop; 1 μM; GF
Sequence of kinases in BCWM.1 cells (Homo sapiens, UniProt P54762) (P54762 18-984 limits assumed): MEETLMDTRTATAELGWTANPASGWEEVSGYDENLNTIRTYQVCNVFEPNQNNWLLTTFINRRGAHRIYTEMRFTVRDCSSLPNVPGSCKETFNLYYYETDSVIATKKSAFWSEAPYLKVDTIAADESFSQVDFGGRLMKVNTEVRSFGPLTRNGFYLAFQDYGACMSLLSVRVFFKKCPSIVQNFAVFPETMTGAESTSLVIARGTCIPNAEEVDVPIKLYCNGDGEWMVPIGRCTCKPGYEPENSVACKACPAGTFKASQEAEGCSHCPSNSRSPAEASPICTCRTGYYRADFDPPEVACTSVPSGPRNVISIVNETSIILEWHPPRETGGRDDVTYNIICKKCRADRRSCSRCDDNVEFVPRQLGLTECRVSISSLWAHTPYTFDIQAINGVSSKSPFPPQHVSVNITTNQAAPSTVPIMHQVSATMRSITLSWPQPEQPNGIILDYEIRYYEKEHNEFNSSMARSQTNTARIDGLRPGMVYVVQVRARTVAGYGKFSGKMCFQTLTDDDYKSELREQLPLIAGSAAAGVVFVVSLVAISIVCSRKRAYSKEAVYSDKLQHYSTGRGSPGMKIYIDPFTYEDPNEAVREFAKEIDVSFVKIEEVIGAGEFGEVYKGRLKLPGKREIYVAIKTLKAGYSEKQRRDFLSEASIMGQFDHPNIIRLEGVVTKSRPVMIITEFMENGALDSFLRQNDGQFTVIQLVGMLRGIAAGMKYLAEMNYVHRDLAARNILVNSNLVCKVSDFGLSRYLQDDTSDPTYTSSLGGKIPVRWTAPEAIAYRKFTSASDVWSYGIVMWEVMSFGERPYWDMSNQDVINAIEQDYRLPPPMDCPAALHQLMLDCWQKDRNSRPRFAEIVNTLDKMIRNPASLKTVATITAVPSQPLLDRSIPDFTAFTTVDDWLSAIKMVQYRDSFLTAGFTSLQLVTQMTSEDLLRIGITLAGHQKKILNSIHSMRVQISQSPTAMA
Experimental: as §1

[25] = molecular target: kinases in BCWM.1 cells (Homo sapiens, UniProt P17612); conditions: PKACa; Lys2; 1 μM, 90 min; GF
Experimental: as §1

[26] = molecular target: kinases in BCWM.1 cells (Homo sapiens, UniProt P27448); conditions: MARK3; Lys1; 1 μM; GF
Experimental: as §1

[27] = molecular target: kinases in BCWM.1 cells (Homo sapiens, UniProt P06241); conditions: FYN; Lys1; 1 μM; GF
Experimental: as §1

[28] = molecular target: kinases in BCWM.1 cells (Homo sapiens, UniProt O00418); conditions: eEF2K; ATP; 1 μM; GF
Sequence of kinases in BCWM.1 cells (Homo sapiens, UniProt O00418) (O00418 2-725 limits assumed): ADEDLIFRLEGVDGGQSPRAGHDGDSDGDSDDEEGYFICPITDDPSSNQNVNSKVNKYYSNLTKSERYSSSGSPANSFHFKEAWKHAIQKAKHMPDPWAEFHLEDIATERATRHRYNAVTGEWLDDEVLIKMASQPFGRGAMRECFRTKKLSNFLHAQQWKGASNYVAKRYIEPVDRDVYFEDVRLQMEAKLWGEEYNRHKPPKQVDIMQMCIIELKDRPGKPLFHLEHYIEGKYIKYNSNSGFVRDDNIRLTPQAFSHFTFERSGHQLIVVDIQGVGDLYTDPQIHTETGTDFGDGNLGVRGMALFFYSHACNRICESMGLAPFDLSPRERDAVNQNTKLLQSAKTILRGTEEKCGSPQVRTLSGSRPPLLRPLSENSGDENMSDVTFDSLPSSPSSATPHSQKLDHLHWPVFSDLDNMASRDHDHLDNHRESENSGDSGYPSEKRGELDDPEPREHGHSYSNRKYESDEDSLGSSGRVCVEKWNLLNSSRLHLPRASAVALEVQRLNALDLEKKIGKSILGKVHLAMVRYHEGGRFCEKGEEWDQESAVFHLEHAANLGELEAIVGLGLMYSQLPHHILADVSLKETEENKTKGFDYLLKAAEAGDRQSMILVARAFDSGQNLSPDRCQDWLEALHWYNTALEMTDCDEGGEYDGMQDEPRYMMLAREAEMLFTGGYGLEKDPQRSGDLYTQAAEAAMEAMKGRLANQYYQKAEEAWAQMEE
Experimental: as §1

[29] = molecular target: kinases in BCWM.1 cells (Homo sapiens, UniProt Q9NRM7); conditions: LATS2; Lys2; 1 μM; GF
Experimental: as §1

[30] = molecular target: kinases in BCWM.1 cells (Homo sapiens, UniProt Q9C0K7); conditions: STLK6; Lys1; 1 μM, 90 min; GF
Experimental: as §1

CCC(=O)N1CC[C@H](Nc2nccc(Nc3ncc(C(=O)Nc4c(C)cccc4C)s3)n2)C1 [Example I-9]
% change of MS signal compared to control sample [1]: −20.8% | % change of MS signal compared to control sample [2]: 33.8% | % change of MS signal compared to control sample [3]: −4.7% and −3.9% | % change of MS signal compared to control sample [4]: −9.2% | % change of MS signal compared to control sample [5]: 7% and −1.8% | % change of MS signal compared to control sample [6]: 18.6% | % change of MS signal compared to control sample [7]: 13.6% | % change of MS signal compared to control sample [8]: 0.4% and −1.4% | % change of MS signal compared to control sample [9]: −11.2% and −7.4% | % change of MS signal compared to control sample [10]: 6.5% | % change of MS signal compared to control sample [11]: −9.6% and −9.5% | % change of MS signal compared to control sample [12]: −3.2% and 6.2% | % change of MS signal compared to control sample [13]: −8.7% and −4.3% | % change of MS signal compared to control sample [14]: −21.2% and −12.5% | % change of MS signal compared to control sample [15]: 1.3% and 5.1% | % change of MS signal compared to control sample [16]: 6.5% | % change of MS signal compared to control sample [17]: −2.6% and −3.2% | % change of MS signal compared to control sample [18]: −3.1% and 3.1% | % change of MS signal compared to control sample [19]: −12.6% and −6.1% | % change of MS signal compared to control sample [20]: 93.7% and 95.4% | % change of MS signal compared to control sample [21]: −3.3% and −0.4% | % change of MS signal compared to control sample [22]: 81.7% and 85.6% | % change of MS signal compared to control sample [23]: −7% | % change of MS signal compared to control sample [24]: 53.3% and 78.9% | % change of MS signal compared to control sample [25]: −8.4% | % change of MS signal compared to control sample [26]: −6.4% and −4.8% | % change of MS signal compared to control sample [27]: >91% | % change of MS signal compared to control sample [28]: −51.4% and −48.7% | % change of MS signal compared to control sample [29]: −12.3% and −5.1% | % change of MS signal compared to control sample [30]: 4.8%
